One may read the Emax as the size of the effect at its maximum, as opposed to the concentration needed.

What all share (type): cell-based
One experiment addresses T1, M3 muscarinic receptor (Homo sapiens, UniProt P20309).
T1 construct: expressed in transfected cells; host or cells: CHO (M3-CHO)
The experiment in a line: Functional mobilization of intracellular calcium (FLIPR), M3-CHO cells. Conditions: for Emax: 100% efficacy is the maximum response obtained with the Carbachol control; for M3 Activity: M3-CHO cells, calcium mobilization (FLIPR). The essentials: (§1)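 FLIPR fluorescence (ex 488, em 540 nm) recorded 60 sec after compound addition to dye-loaded CHO cells. Agonist mode: compound alone. Antagonist mode: 15 min compound pre-incubation, then carbachol at EC80, or co-application. Efficacy expressed as % of maximal carbachol response.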
For orientation: Calcium assays in cells follow changes in intracellular calcium, usually with a dye or a luminescent sensor.

In a further experiment the target is T2, M1 muscarinic receptor (Homo sapiens, UniProt P11229).
T2 construct: expressed in transfected cells; host or cells: CHO (M1-CHO)
T2 sequence (P11229 1-460): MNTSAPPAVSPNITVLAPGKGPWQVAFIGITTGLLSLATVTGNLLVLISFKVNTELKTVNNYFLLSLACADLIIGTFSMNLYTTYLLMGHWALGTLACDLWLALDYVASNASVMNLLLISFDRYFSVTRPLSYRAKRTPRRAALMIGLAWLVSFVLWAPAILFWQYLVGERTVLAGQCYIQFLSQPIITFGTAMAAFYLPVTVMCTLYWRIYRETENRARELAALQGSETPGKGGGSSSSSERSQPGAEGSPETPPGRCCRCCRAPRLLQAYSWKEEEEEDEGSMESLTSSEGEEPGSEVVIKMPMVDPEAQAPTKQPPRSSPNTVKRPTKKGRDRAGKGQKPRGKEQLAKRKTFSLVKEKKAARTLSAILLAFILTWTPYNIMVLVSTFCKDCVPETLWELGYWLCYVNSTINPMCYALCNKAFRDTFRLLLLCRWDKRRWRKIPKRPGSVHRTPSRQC
The experiment in a line: Functional mobilization of intracellular calcium (FLIPR), M1-CHO cells. Conditions: for Emax: 100% efficacy is the maximum response obtained with the Carbachol control; for M1 Activity: M1-CHO cells, calcium mobilization (FLIPR). The essentials:
as §1

The target in a further experiment is T3, M4 muscarinic receptor (Homo sapiens, UniProt P08173).
T3 construct: expressed in transfected cells; host or cells: CHO (M4-CHO)
T3 sequence (P08173 1-479): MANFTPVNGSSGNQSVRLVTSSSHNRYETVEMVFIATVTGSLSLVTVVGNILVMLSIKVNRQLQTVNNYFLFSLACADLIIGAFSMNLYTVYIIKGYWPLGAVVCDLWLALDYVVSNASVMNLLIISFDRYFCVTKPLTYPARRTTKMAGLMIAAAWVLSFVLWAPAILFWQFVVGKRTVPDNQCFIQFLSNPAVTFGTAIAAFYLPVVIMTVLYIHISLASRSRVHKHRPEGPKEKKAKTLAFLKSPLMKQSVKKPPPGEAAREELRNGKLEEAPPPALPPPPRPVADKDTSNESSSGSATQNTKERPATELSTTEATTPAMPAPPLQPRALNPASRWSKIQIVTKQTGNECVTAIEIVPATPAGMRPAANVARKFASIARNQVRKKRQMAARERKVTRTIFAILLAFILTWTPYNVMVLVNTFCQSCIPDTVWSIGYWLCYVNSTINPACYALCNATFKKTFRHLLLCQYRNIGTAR
The experiment in a line: Functional mobilization of intracellular calcium (FLIPR), M4-CHO cells. To be noted: for Emax: 100% efficacy is the maximum response obtained with the Carbachol control; for M4 Activity: M4-CHO cells, calcium mobilization (FLIPR). The procedure, abridged: as §1

In another experiment the target is T4, M2 muscarinic receptor (Homo sapiens, UniProt P08172).
T4 construct: expressed in transfected cells; host or cells: CHO (M2-CHO)
T4 sequence (P08172 1-466): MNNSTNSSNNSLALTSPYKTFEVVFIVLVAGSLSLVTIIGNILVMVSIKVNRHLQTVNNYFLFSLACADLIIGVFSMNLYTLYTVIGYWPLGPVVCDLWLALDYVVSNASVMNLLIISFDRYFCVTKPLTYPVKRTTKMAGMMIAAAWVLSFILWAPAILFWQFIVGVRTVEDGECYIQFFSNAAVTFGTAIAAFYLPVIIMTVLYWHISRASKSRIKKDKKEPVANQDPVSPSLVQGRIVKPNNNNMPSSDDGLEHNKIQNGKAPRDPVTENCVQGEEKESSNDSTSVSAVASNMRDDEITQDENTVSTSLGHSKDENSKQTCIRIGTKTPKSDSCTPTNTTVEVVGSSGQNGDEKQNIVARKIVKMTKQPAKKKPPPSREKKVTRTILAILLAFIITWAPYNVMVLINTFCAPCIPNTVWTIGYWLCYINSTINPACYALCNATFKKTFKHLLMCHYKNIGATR
The experiment can be described thus: Functional mobilization of intracellular calcium (FLIPR), M2-CHO cells. To be noted: for Emax: 100% efficacy is the maximum response obtained with the Carbachol control; for M2 Activity: M2-CHO cells, calcium mobilization (FLIPR). The essentials: as §1

T1 sequence (P20309 whole entry): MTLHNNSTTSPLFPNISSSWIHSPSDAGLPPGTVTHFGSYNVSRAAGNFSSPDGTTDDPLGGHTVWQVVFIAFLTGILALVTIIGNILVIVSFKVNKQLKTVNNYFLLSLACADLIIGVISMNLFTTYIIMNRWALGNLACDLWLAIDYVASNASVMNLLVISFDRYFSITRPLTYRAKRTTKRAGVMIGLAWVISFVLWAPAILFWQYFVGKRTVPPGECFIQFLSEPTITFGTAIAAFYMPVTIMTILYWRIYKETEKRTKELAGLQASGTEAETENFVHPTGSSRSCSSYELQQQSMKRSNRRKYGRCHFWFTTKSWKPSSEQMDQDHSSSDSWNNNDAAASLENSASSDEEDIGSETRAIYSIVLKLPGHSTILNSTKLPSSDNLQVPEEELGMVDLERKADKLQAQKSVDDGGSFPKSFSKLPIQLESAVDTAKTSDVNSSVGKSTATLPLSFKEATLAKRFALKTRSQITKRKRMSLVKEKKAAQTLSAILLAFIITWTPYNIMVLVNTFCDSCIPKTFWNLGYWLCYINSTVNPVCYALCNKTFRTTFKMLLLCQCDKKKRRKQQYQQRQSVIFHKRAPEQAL

`COc1ccc(-c2ccc(C(C)(C)C#N)cc2)cc1C1CCN(C2C[C@H]3CC[C@H]2C3)CC1` (stereo partly drawn) [Compound 403]: at M3 muscarinic receptor, the Emax was under 25% and the “M3 Activity” value is on record as “+ (activity was measured to be greater than 5.0 μM)”. For the same compound, at M1 muscarinic receptor, the maximal response (Emax) was in the range of 25 to 100% and the “M1 Activity” value is reported as “+ (activity was measured to be greater than 5.0 μM)”. Also, at M4 muscarinic receptor, the Emax was 25 to 100% and the “M4 Activity” value is “++ (activity was measured to be from 1.0 μM to 5.0 μM)”. Further, on M2 muscarinic receptor, the Emax is under 25% and the “M2 Activity” value was “+ (activity was measured to be greater than 5.0 μM)”.
`C=Cc1ccc(OC)c(C2CCN([C@@H]3C[C@H]4CC[C@H]3C4)CC2)c1` [Compound 404]: on M3 muscarinic receptor, the Emax is under 25% and the “M3 Activity” value is reported as “+ (activity was measured to be greater than 5.0 μM)”. Besides, on M1 muscarinic receptor, the Emax fell in the range of 25 to 100% and the “M1 Activity” value was “++ (activity was measured to be from 1.0 μM to 5.0 μM)”. At M4 muscarinic receptor, the Emax fell in the range of 25 to 100% and the “M4 Activity” value is on record as “+++ (activity was measured to be less than 1.0 μM)”. On M2 muscarinic receptor, the Emax is under 25% and the “M2 Activity” value is reported as “+ (activity was measured to be greater than 5.0 μM)”.
Take `CCOC(=O)N1CCC(CN2CCC(c3ccccc3C(F)(F)F)CC2)CC1` [Compound 405]: on M3 muscarinic receptor, the Emax is under 25% and the “M3 Activity” value is “+ (activity was measured to be greater than 5.0 μM)”. Also, at M1 muscarinic receptor, the Emax is 25 to 100% and the “M1 Activity” value is “+++ (activity was measured to be less than 1.0 μM)”. On M4 muscarinic receptor, the Emax is over 100% and the “M4 Activity” value is “+++ (activity was measured to be less than 1.0 μM)”. Besides, on M2 muscarinic receptor, the Emax lay in the range of 25 to 100% and the “M2 Activity” value is recorded as “++ (activity was measured to be from 1.0 μM to 5.0 μM)”.
`CCOC(=O)N1C2CCC1CC(N1CCC(c3cc(Cl)ccc3OC)CC1)C2` (stereo not drawn) [Compound 406]: on M3 muscarinic receptor, the Emax was in the range of 25 to 100% and the “M3 Activity” value is listed as “+ (activity was measured to be greater than 5.0 μM)”. On M1 muscarinic receptor, the Emax lay in the range of 25 to 100% and the “M1 Activity” value is “+++ (activity was measured to be less than 1.0 μM)”. For the same compound, at M4 muscarinic receptor, the Emax fell in the range of 25 to 100% and the “M4 Activity” value was “+++ (activity was measured to be less than 1.0 μM)”. At M2 muscarinic receptor, the Emax was in the range of 25 to 100% and the “M2 Activity” value is “+++ (activity was measured to be less than 1.0 μM)”.
Regarding `COc1ccc(-c2ccc(C(N)=O)cc2)cc1C1CCN([C@H]2C[C@H]3CC[C@H]2C3)CC1` [Compound 407], on M3 muscarinic receptor, the Emax is under 25% and the “M3 Activity” value was “+ (activity was measured to be greater than 5.0 μM)”. For the same compound, at M1 muscarinic receptor, the Emax is under 25% and the “M1 Activity” value is “+ (activity was measured to be greater than 5.0 μM)”. Further, on M4 muscarinic receptor, the Emax was 25 to 100% and the “M4 Activity” value is reported as “+++ (activity was measured to be less than 1.0 μM)”. Moreover, at M2 muscarinic receptor, the Emax is under 25% and the “M2 Activity” value is listed as “+ (activity was measured to be greater than 5.0 μM)”.
Turning to `COc1ccccc1C1CCN(C2C3CC4CC(C3)CC2C4)CC1` (stereo not drawn) [Compound 408], at M3 muscarinic receptor, the Emax is under 25% and the “M3 Activity” value is “+ (activity was measured to be greater than 5.0 μM)”. On M1 muscarinic receptor, the Emax was in the range of 25 to 100% and the “M1 Activity” value is reported as “+ (activity was measured to be greater than 5.0 μM)”. At M4 muscarinic receptor, the maximum response (Emax) is 25 to 100% and the “M4 Activity” value is “+++ (activity was measured to be less than 1.0 μM)”. Also, on M2 muscarinic receptor, the Emax was under 25% and the “M2 Activity” value was “+ (activity was measured to be greater than 5.0 μM)”.
On to `COc1ccc(Cl)cc1C1(F)CCN(C2CCCCC2)CC1` [Compound 409], for which, at M3 muscarinic receptor, the Emax was under 25% and the “M3 Activity” value is reported as “+ (activity was measured to be greater than 5.0 μM)”. On M1 muscarinic receptor, the Emax fell in the range of 25 to 100% and the “M1 Activity” value is given as “+ (activity was measured to be greater than 5.0 μM)”. On M4 muscarinic receptor, the Emax was in the range of 25 to 100% and the “M4 Activity” value was “++ (activity was measured to be from 1.0 μM to 5.0 μM)”. Further, at M2 muscarinic receptor, the maximal response (Emax) lay within 25 to 100% and the “M2 Activity” value is “+ (activity was measured to be greater than 5.0 μM)”.
On to `COc1ccccc1C1CCN(C2CCC(OC(=O)c3ccccc3)CC2)CC1` (stereo not drawn) [Compound 410], for which, at M3 muscarinic receptor, the Emax was under 25% and the “M3 Activity” value is “+ (activity was measured to be greater than 5.0 μM)”. Also, at M1 muscarinic receptor, the Emax was under 25% and the “M1 Activity” value was “+ (activity was measured to be greater than 5.0 μM)”. Further, at M4 muscarinic receptor, the Emax was in the range of 25 to 100% and the “M4 Activity” value is reported as “++ (activity was measured to be from 1.0 μM to 5.0 μM)”. Moreover, at M2 muscarinic receptor, the Emax was under 25% and the “M2 Activity” value is “+ (activity was measured to be greater than 5.0 μM)”.
For the compound `CCOC(=O)N1CCC(CN2CCC(c3cc(-c4ccc(S(=O)(=O)N5CCCC5)cc4)ccc3OC)CC2)CC1` [Compound 411], at M3 muscarinic receptor, the Emax is under 25% and the “M3 Activity” value was “+ (activity was measured to be greater than 5.0 μM)”. Moreover, at M1 muscarinic receptor, the maximal effect (Emax) was in the range of 25 to 100% and the “M1 Activity” value is on record as “+++ (activity was measured to be less than 1.0 μM)”. In addition, on M4 muscarinic receptor, the Emax was under 25% and the “M4 Activity” value is “+++ (activity was measured to be less than 1.0 μM)”. Moreover, on M2 muscarinic receptor, the Emax was under 25% and the “M2 Activity” value was “+ (activity was measured to be greater than 5.0 μM)”.
On to `COc1ccc(-c2ccsc2)cc1C1CCN([C@@H]2C[C@H]3CC[C@H]2C3)CC1` [Compound 414], for which, at M3 muscarinic receptor, the Emax was under 25% and the “M3 Activity” value was “+ (activity was measured to be greater than 5.0 μM)”. In addition, at M1 muscarinic receptor, the Emax was under 25% and the “M1 Activity” value is recorded as “+ (activity was measured to be greater than 5.0 μM)”. Also, at M4 muscarinic receptor, the Emax fell in the range of 25 to 100% and the “M4 Activity” value is given as “++ (activity was measured to be from 1.0 μM to 5.0 μM)”. At M2 muscarinic receptor, the Emax is under 25% and the “M2 Activity” value is listed as “+ (activity was measured to be greater than 5.0 μM)”.
In the case of `N#Cc1ccc(C2CCN(C3CCOCC3)CC2)cc1` [Compound 415], at M3 muscarinic receptor, the Emax is under 25% and the “M3 Activity” value is “+ (activity was measured to be greater than 5.0 μM)”. In addition, at M1 muscarinic receptor, the Emax was under 25% and the “M1 Activity” value is listed as “+ (activity was measured to be greater than 5.0 μM)”. For the same compound, at M4 muscarinic receptor, the Emax is 25 to 100% and the “M4 Activity” value is recorded as “+ (activity was measured to be greater than 5.0 μM)”. In addition, on M2 muscarinic receptor, the Emax is under 25% and the “M2 Activity” value is given as “+ (activity was measured to be greater than 5.0 μM)”.
As to `COc1ccc(C(=O)c2ccoc2)cc1C1CCN([C@@H]2C[C@H]3CC[C@H]2C3)CC1` [Compound 416], on M3 muscarinic receptor, the Emax is under 25% and the “M3 Activity” value is “+ (activity was measured to be greater than 5.0 μM)”. In addition, on M1 muscarinic receptor, the Emax is under 25% and the “M1 Activity” value is “+ (activity was measured to be greater than 5.0 μM)”. For the same compound, on M4 muscarinic receptor, the Emax lay within 25 to 100% and the “M4 Activity” value was “++ (activity was measured to be from 1.0 μM to 5.0 μM)”. On M2 muscarinic receptor, the Emax was under 25% and the “M2 Activity” value is reported as “+ (activity was measured to be greater than 5.0 μM)”.

(Values after patent US7880007B2, “Bicyclic substituted phenyl piperidine modulators of muscarinic receptors” (Vertex Pharmaceuticals Incorporated, priority 2004, dated 2011).)
